From patent publication US9279806B2, “Water-soluble AIE luminogens for monitoring and retardation of fibrillation of amyloid proteins” (THE HONG KONG UNIVERSITY OF SCIENCE AND TECHNOLOGY, priority 2005, dated 2016)

Legend:
G-quadruplex of G1 = experiment: Isothermal titration calorimetry (ITC); format: binding, human
Description: It is clear that TTAPE is highly affinitive to K^+-containing G-quadruplex but not its Na^+ cousin. Isothermal titration calorimetry (ITC) measurements are performed, in an effort to understand the thermodynamic basis for the binding affinity difference. ITC is a sensitive technique for the studies of bimolecular processes and can provide direct information about binding affinities and associated thermodynamic parameters. A calorimetric titration experiment was performed at 25.00±0.01° C. on a MicroCal VP-ITC apparatus. G1 solutions for the ITC experiments were prepared in all-potassium (K-Tris: 5 mM Tris-HCl and 150 mM KCl) or all-sodium (Na-Tris: 5 mM Tris-HCl and 150 mM NaCl) buffer at pH 7.50, as required. The buffer solution of G1 was heated to 85° C. and cooled slowly to ensure the folding of the DNA into G-quadruplex structure. For a typical titration, a series of 10 μL aliquots of TTAPE solution were injected into the G1/M^+ solution at a 240 s interval. The heat for each injection was determined by the integration of the peak area in the thermogram with respect to time. Blank titration was conducted by injecting TTAPE into the sample cell containing only buffer under the same condition. The interaction heat was corrected by subtracting the blank heat from that for the TTAPE/G1 titration. The kb values were derived by fitting the isotherm curves with Origin 5.0 software.

G1 = experiment: Time-dependent FL of G1 folding; format: biochemical, human
Description: Time-dependent FL was measured on a FluostarOptima multifunctional microplate reader (BMG Labtechnologies) with λex/λem set at 350/470 nm. To gain insight into dynamics of the folding process of G1, time-dependent FL measurements are performed. Solutions containing TTAPE and G1 are first incubated for 30 min to ensure complete dye/DNA complexation and transferred to a 96-well microtiter plate after incubation. Appropriate amounts of metal ions were added by an automatic injection mode. Kinetic measurements were performed at 20° C. and the FL data were recorded in every 4 s. The change in the emission intensity (1) of the solution after the addition of K^+ can be fitted by a second-order exponential curve: I=A1e^−t/τ1+A2e^−t/τ2+c Eq. (1) where t is the time, τ1 and r2 are the time constants of FL recovery, A^1 and A^2 are the respective amplitudes (the folding process is characterized by negative A values), and c is the FL intensity at t=infinity. Mean time constant (<τ>) was calculated according to eq. 2:
In one embodiment, a solution of potassium chloride is then injected at time t=0 (automatic injection mode) and the emission intensity at 470 nm is monitored. The emission drops abruptly to ˜30% of its original intensity at the beginning but starts to recover after ˜8 s and finally reaches a plateau at ˜320 s (FIG. 42). […]

[1] = tested on: G1 (ssDNA that mimics human telomeric sequence) / G-quadruplex; experiment: DNA probing and quadruplex recognition by FL/CD of TTAPE with G1; format: binding
Description: G1 is a 21-mer ssDNA that mimics human telomeric sequence. When the DNA is added into a solution of TTAPE in a Tris-HCl buffer, the solution starts to luminesce (FIG. 27A). Similar FL “lightup” phenomenon has been observed in the thiazole orange system. The I/I0 ratio of TTAPE at 470 nm increases rapidly in a narrow DNA concentration range and reaches its maximum at [G1]=5 μM (FIG. 27B). While conventional FL dyes suffer from self-quenching problems at high dye concentrations, the FL of TTAPE is continuously intensified with increasing its concentration (FIG. 28 and FIG. 27B), thanks to its unique AIE feature. In the aqueous buffer, the cationic dye spontaneously binds to the anionic DNA via electrostatic attraction, resulting in the formation of a TTAPE/G1 complex. Hydrophobic interaction between TTAPE and G1 may have also played a role in the binding process. These intermolecular forces lock conformations of the TTAPE molecules bound to the G1 strands. Consequently, the intramolecular rotations of TTAPE are restricted, which thus blocks its radiationless relaxation pathways and activates its FL process.
A complex of ssDNA and TTAPE was prepared by mixing 10 μL G 1 (0.1 mM) and 50 μL TTAPE (0.01 mM) in 5 mM Tris-HCl buffer in a 1.5 ml Eppendorf cup. The solution was incubated at 4° C. for 30 min. G-quadruplex formation was induced by adding 10 μl of a 1.0 M KCl solution into the Eppendorf cup. The final concentrations of TTAPE and G1 were kept at 4.5 and 9.0 μM, respectively. For other cationic species, the same amounts of corresponding salts were used. Kinetic experiment was conducted immediately after the injection of the cationic solution, while other spectral measurements were performed after an incubation period of 30 min.
DNA samples of G1, C1 and C2 were obtained from Operon in desalt purity and used without further purification. G1 was chosen as a model ssDNA mimicking the human telomeric repeat sequence d(T2AG3), which is capable of forming intramolecular G-quadruplex. Concentrations of the DNA strands were determined by measuring their absorptivity (E) values at 260 nm in a 100 μL quartz cuvette [ε(×10^5 M^−1 cm^−1): 2.14 (G1), 1.85 (C1), 1.85 (C2)]. Water was purified by a Millipore filtration system. Buffer solution was prepared by titrating 5 mM Tris with HCl until its pH value reached 7.50. All experiments were performed at room temperature unless otherwise specified.

HG21 DNA = experiment: CD spectra: G-quadruplex induction by TPE derivatives; format: biochemical; details: 9 μM DNA, 4.5 μM TPE derivative, Tris-HCl pH 7.5, 25 °C
Description: [TPE]=4.5 μM; [HG21]=9 μM and [K^+]=0.5 M.
CD spectral profiles of 9 μM DNA in 5 mM Tris-HCl buffer solutions (pH 7.5) incubated under 25° C. with four different TPE derivatives at 4.5 μM or with 0.5M K^+ ions are studied (FIG. 77). TPE derivatives 1-4 are TTAPE (Example 6), TPE-2 (chemical structure is not shown herein), TPE-3 (chemical structure is not shown herein) and TPE-C2N+ (Example 3), respectively. […] On the other hand, DNA incubated with TTAPE or the known quadruplex inducer; K^+ ions have very similar spectral profiles, while the ellipticities of DNA/TTAPE are somehow weaker than DNA/K^+.

[2] = entry 1: K+ added to TTAPE/G1 mixture, room temperature
[3] = entry 2: G1 added to TTAPE/K+ mixture
[4] = entry 3: TTAPE added to G1/K+ mixture

For `CC[N+](CC)(CC)CCOc1ccc(C(=C(c2ccc(OCC[N+](CC)(CC)CC)cc2)c2ccc(OCC[N+](CC)(CC)CC)cc2)c2ccc(OCC[N+](CC)(CC)CC)cc2)cc1.[Br-].[Br-].[Br-].[Br-]` [TTAPE, 1,1,2,2-tetrakis[4-(2-triethylammonioethoxy)phenyl]ethene tetrabromide], the “Gibbs energy (ΔG°)” value (G-quadruplex of G1; G1/K+ buffer, 25 °C) was -7.3 kcal/mol, the Binding constant (G-quadruplex of G1; Na+ titration (Na-Tris)) was “too small to be determined accurately” and the “Weighted mean time constant (<τ>) of FL recovery” value (G1; K+ 0.5 M injected into TTAPE/G1, 470 nm, 20 °C) was 116 s. The “Time at which recovered emission reaches a plateau” value (G1; K+ injected into TTAPE/G1, 470 nm) was roughly 320 s, the “Red-shift of excitation and emission spectra on quadruplex formation” value ([1]; K+ added to TTAPE/G1) was roughly 20 nm and the “G1 concentration at which I/I0 at 470 nm reaches its maximum” value ([1]; TTAPE 4.5 μM in Tris-HCl buffer) was 5 µM. For the same molecule, the “CD intensity (relative intensity at 295 nm)” value [1, 2] was 1.00, the “FL intensity (relative intensity at 492 nm)” value [1, 2] was 1.00 and the “CD intensity (relative intensity at 295 nm)” value [1, 3] was 0.92. For the same molecule, the “FL intensity (relative intensity at 492 nm)” value [1, 3] was 0.82, the “CD intensity (relative intensity at 295 nm)” value [1, 4] was 0.88 and the “FL intensity (relative intensity at 492 nm)” value [1, 4] was 0.70. The “G-quadruplex induction (CD spectral profile)” value (HG21 DNA) was “acts as an internal quadruplex inducer under 25 °C”.
